Measured values taken from article PMC8715118, “Assessing potentiation of the (α4)3(β2)2 nicotinic acetylcholine receptor by the allosteric agonist CMPI” (The Journal of Biological Chemistry, 2021).
Several values for one entry are separate records, joined by “and”; a condition that tells them apart may be missing. Identical values can stand only once. Like-named read-outs stand apart in the source and are kept apart here.

How the values were obtained:
Assay type in all cases: cell-based
[1] = molecular target: T1, (α4)3(β2)2 nAChR (Homo sapiens, UniProt P17787+P43681); assay: Two-electrode voltage-clamp whole-cell currents, Xenopus oocytes expressing WT (α4)3(β2)2 nAChR; conditions: for EC50: read-out: potentiation EC50
T1 construct: expressed in transfected cells; host or cells: Xenopus laevis oocytes injected with cRNA, 8:1 α4:β2
Protocol: (§1) Oocytes-positive female Xenopus laevis were purchased from NASCO, and all procedures were performed according to an animal use protocol approved by the Institutional Animals Care and Use Committee of The University of Texas Health Science Center at Tyler. Ovarian lobules were surgically harvested, treated with collagenase type 2, and Stage V and VI oocytes were visually selected and maintained at 18 °C in modified ND96-gentamicin buffer (96 mM NaCl, 2 mM KCl, 1.8 mM CaCl2, 1 mM MgCl2, 5 mM Hepes, and 50 μg/ml gentamicin, pH 7.6).
(§2) pSP64 Poly(A) plasmids with cDNA encoding for human α4 or β2 nAChR subunit were used to prepare cRNA transcripts suitable for oocyte expression. The plasmids were linearized with AseI (hα4) and PvuII (hβ2), then cRNA transcripts were prepared in vitro using mMESSAGE mMACHINE high yield-capped RNA transcription kits (Ambion, Thermo Fisher Scientific), purified on NucAway Spin column (Invitrogen, Thermo Fisher Scientific), and stored at −80 °C until used. Point mutations within the plasmid encoding the α4 nAChR subunit were introduced using QuikChange II Site-Directed Mutagenesis Kit (Agilent Technologies), as described previously ([28]). To generate amino acid substitutions (K64T, E66I, H116V, H116L, and H116A), two custom-designed complementary oligos containing the desired mutation were used (Integrated DNA Technologies). The forward primers were as the following with the codon for mutated amino acids are underlined and nucleotide(s) changes are bolded and italicized:
(§3) The oocytes were injected with 10 to 50 ng of a cRNA mix containing α4 (WT or mutant) and β2 RNAs at ratios of 8:1(α4:β) or 1:8 (α4:β2) to bias expression toward (α4)3(β2)2 or (α4)2(β2)3 nAChRs, respectively. The injection of oocytes with RNAs mixture containing four folds or higher α4 RNA than β2 RNA have been established to express receptor population that is made up of three α4 and two β2 subunits ([9], [12], [28], [43], [44], [45]).
(§4) 24 to 72 h after cRNA injection, Xenopus oocytes were placed in a custom-made recording chamber that is connected to an eight-channel automated perfusion system (Warner Instruments) and perfused with recording buffer (100 mM NaCl, 2 mM KCl, 1 mM CaCl2, 0.8 mM MgCl2, 1 mM EGTA, and 10 mM Hepes, pH 7.5). Unless otherwise specified in figure legends, each recording run included several drug applications (10 s of an agonist with or without CMPI or NS9283) separated by 3 to 4 min buffer wash intervals. Between recording runs, the oocytes were washed with recording buffer for at last 5 min. The oocytes were voltage-clamped at −50 mV using Oocyte Clamp OC-725B (Warner Instruments). The currents were digitized using Digidata 1550A (Axon Instruments, Molecular Devices), and the peak currents were quantified using pCLAMP 10 (Axon Instruments), then normalized and analyzed using Excel 2010 (Microsoft) and SigmaPlot 11.0 (Systat Software). For NS9283 and CMPI potentiation of agonist-induced responses, the peak currents were normalized to current elicited by agonist alone applied within the same recording run. For the effect of coapplication of 1 μM NS9283 or CMPI on agonist concentration-response curve, the peak currents were normalized to current elicited by saturating concentration of agonist applied within the same recording run. […] I0 = 100 for NS9283 and CMPI potentiation of agonist-induced responses and I0 = 0 for agonist concentration-response experiments. The best-fit values for Imax and EC50 ± SD are presented.

[2] = molecular target: T2, (α4H116V)3(β2)2 nAChR (Homo sapiens, UniProt P17787+P43681, H142V); assay: Two-electrode voltage-clamp, oocytes expressing (α4H116V)3(β2)2 nAChR
T2 construct: expressed in transfected cells; host or cells: Xenopus laevis oocytes injected with cRNA, 8:1 α4:β2
Protocol: as §1, §2, §3
(§5) 24 to 72 h after cRNA injection, Xenopus oocytes were placed in a custom-made recording chamber that is connected to an eight-channel automated perfusion system (Warner Instruments) and perfused with recording buffer (100 mM NaCl, 2 mM KCl, 1 mM CaCl2, 0.8 mM MgCl2, 1 mM EGTA, and 10 mM Hepes, pH 7.5). Unless otherwise specified in figure legends, each recording run included several drug applications (10 s of an agonist with or without CMPI or NS9283) separated by 3 to 4 min buffer wash intervals. Between recording runs, the oocytes were washed with recording buffer for at last 5 min. […] The currents were digitized using Digidata 1550A (Axon Instruments, Molecular Devices), and the peak currents were quantified using pCLAMP 10 (Axon Instruments), then normalized and analyzed using Excel 2010 (Microsoft) and SigmaPlot 11.0 (Systat Software). […]

[3] = molecular target: T3, (α4K64T)3(β2)2 nAChR (Homo sapiens, UniProt P17787+P43681, K90T); assay: Two-electrode voltage-clamp, oocytes expressing (α4K64T)3(β2)2 nAChR
T3 construct: expressed in transfected cells; host or cells: Xenopus laevis oocytes injected with cRNA, 8:1 α4:β2
Protocol: as §1, §2, §3, §5

[4] = molecular target: T4, (α4H116L)3(β2)2 nAChR (Homo sapiens, UniProt P17787+P43681, H142L); assay: Two-electrode voltage-clamp, oocytes expressing (α4H116L)3(β2)2 nAChR
T4 construct: expressed in transfected cells; host or cells: Xenopus laevis oocytes injected with cRNA, 8:1 α4:β2
Protocol: as §1, §2, §3, §5

[5] = molecular target: T5, (α4E66I)3(β2)2 nAChR (Homo sapiens, UniProt P17787+P43681, E92I); assay: Two-electrode voltage-clamp, oocytes expressing (α4E66I)3(β2)2 nAChR
T5 construct: expressed in transfected cells; host or cells: Xenopus laevis oocytes injected with cRNA, 8:1 α4:β2
Protocol: as §1, §2, §3, §5

[6] = molecular target: T6, (α4H116A)3(β2)2 nAChR (Homo sapiens, UniProt P17787+P43681, H142A); assay: Two-electrode voltage-clamp, oocytes expressing (α4H116A)3(β2)2 nAChR; conditions: 1 μM modulator
T6 construct: expressed in transfected cells; host or cells: Xenopus laevis oocytes injected with cRNA, 8:1 α4:β2
Protocol: as §1, §2, §3, §4

T1 sequence (P43681 27-627): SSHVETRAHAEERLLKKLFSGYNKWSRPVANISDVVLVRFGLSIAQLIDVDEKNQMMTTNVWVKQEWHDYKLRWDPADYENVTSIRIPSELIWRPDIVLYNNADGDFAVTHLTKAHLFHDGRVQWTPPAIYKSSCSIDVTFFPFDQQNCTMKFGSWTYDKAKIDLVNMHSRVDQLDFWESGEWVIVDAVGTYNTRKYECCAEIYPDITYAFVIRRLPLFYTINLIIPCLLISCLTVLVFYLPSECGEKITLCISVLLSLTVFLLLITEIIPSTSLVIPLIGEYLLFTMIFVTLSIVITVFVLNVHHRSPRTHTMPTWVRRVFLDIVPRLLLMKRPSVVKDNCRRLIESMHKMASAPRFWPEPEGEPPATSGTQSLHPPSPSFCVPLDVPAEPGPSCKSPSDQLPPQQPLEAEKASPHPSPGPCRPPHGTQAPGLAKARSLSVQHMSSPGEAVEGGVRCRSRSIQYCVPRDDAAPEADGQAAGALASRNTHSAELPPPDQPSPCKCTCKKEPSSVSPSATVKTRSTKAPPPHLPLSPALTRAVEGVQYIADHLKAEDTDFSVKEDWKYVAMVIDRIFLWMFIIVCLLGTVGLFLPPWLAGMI
T1 sequence (P17787 26-502): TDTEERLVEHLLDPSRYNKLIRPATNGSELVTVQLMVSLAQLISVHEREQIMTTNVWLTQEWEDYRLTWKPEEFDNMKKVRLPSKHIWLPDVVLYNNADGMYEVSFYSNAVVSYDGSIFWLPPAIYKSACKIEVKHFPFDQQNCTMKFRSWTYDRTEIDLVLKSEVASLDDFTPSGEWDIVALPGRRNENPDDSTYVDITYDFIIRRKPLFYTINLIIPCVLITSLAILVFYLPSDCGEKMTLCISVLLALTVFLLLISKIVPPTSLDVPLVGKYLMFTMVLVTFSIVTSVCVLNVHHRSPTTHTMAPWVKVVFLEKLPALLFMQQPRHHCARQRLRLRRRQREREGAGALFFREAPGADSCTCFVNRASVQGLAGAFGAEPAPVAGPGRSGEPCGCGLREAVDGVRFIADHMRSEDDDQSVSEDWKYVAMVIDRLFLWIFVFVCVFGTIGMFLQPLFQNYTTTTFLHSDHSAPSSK
T5 sequence (P43681 27-627 E92I): as the sequence (P43681 27-627) above, with E66I counted along it
T5 sequence (P17787 26-502): as the sequence (P17787 26-502) above
T3 sequence (P43681 27-627 K90T): as the sequence (P43681 27-627) above, with K64T counted along it
T3 sequence (P17787 26-502): as the sequence (P17787 26-502) above
T2 sequence (P43681 27-627 H142V): as the sequence (P43681 27-627) above, with H116V counted along it
T2 sequence (P17787 26-502): as the sequence (P17787 26-502) above
T4 sequence (P43681 27-627 H142L): as the sequence (P43681 27-627) above, with H116L counted along it
T4 sequence (P17787 26-502): as the sequence (P17787 26-502) above
T6 sequence (P43681 27-627 H142A): as the sequence (P43681 27-627) above, with H116A counted along it
T6 sequence (P17787 26-502): as the sequence (P17787 26-502) above

CN1CCC[C@H]1c1cccnc1 [nicotine] was tested, and the “current response produced by a saturating concentration (100 μM), % of current elicited by 1 mM ACh” value ([1]; 100 μM agonist) was 73 ± 3% and the “current response at subsaturating concentration, % of the current response to 1 mM ACh” value ([1]; subsaturating (1 μM) agonist) was 2.9 ± 0.4%.
For C=CC(C)(C)c1[nH]c2cc(Br)ccc2c1CCNC [dFBr, desformylflustrabromine], the “peak response to 1 mM ACh, % of control” value ([1]; 1 mM ACh + 3 μM dFBr) was 278 ± 36%.
With N#Cc1cccc(-c2nc(-c3cccnc3)no2)c1 [NS9283, 3-[3-(3-pyridinyl)-1,2,4-oxadiazol-5-yl]benzonitrile] the “potentiation fold (Ave ± SD), agonist + 1 μM modulator / agonist alone” value ([2]; ACh (1 mM)) was 0.90 ± 0.02, the “potentiation fold (Ave ± SD), agonist + 1 μM modulator / agonist alone” value ([2]; TC 2559 (30 μM)) was 0.87 ± 0.06 and the “potentiation fold (Ave ± SD), agonist + 1 μM modulator / agonist alone” value ([3]; ACh (1 mM)) was 1.10 ± 0.08. The “potentiation fold (Ave ± SD), agonist + 1 μM modulator / agonist alone” value ([3]; TC 2559 (30 μM)) was 4.72 ± 2.27, the “potentiation fold (Ave ± SD), agonist + 1 μM modulator / agonist alone” value ([4]; ACh (1 mM)) was 0.95 ± 0.03 and the “potentiation fold (Ave ± SD), agonist + 1 μM modulator / agonist alone” value ([4]; TC 2559 (30 μM)) was 1.18 ± 0.17. For the same compound, the maximal potentiation ([1]; 1 μM TC-2559) was 1800 ± 307%, the “effect on responses to agonists at subsaturating concentrations” value ([1]; 1 μM modulator, ACh, nicotine, cytisine, TC-2559, p < 0.001) was “potentiated” and the “effect on responses to saturating concentrations of the tested agonists” value ([1]; 1 μM modulator, except for TC-2559) was “did not potentiate”. The maximal potentiation ([1]; 10 μM TC-2559) was 1522 ± 41%, the “potentiation fold (Ave ± SD), agonist + 1 μM modulator / agonist alone” value ([1]; ACh (1 mM), 1 μM modulator) was 1.00 ± 0.04 and the “potentiation fold (Ave ± SD), agonist + 1 μM modulator / agonist alone” value ([1]; TC 2559 (30 μM), 1 μM modulator) was 5.05 and 5.05 ± 1.66. For the same compound, the EC50 ([1]; responses induced by 1 μM TC-2559) was 1900 ± 200 nM, the EC50 ([1]; responses induced by 10 μM TC-2559) was 1800 ± 120 nM and the “potentiation fold (Ave ± SD), agonist + 1 μM modulator / agonist alone” value ([5]; ACh (1 mM)) was 0.95 ± 0.07. For the same compound, the “potentiation fold (Ave ± SD), agonist + 1 μM modulator / agonist alone” value ([5]; TC 2559 (30 μM)) was 2.68 ± 1.08, the “potentiation fold (Ave ± SD), agonist + 1 μM modulator / agonist alone” value ([6]; ACh (1 mM)) was 0.98 ± 0.03 and the “potentiation fold (Ave ± SD), agonist + 1 μM modulator / agonist alone” value ([6]; TC 2559 (30 μM)) was 0.93 ± 0.12.
